Where “and” joins values, the source holds several entries; their conditions need not be identical. Equal values may be shown once. Where a name gives a salt, the structure may show the parent alone. Read-outs that look alike come from different tables or passages of the source.

In the assay the test system is HT29 RAMS11 overexpressing cells. Description: High-throughput viability assay (resazurin), 119 FDA-approved anticancer drugs, RAMS11 overexpressing cells (Clone1, Clone2). On the technique in general: Alamar Blue is a resazurin reagent that responds to reducing activity.
Setting [1] is: OE1 (RAMS11 overexpression clone 1), 0.1 uM drug, 72 h, vs empty vector control.
Where [2] appears, read: OE1 (RAMS11 overexpression clone 1), 1 uM drug, 72 h, vs empty vector control.
[3] abbreviates: OE1 (RAMS11 overexpression clone 1), 10 uM drug, 72 h, vs empty vector control.
The mark [4] stands for this setting: OE2 (RAMS11 overexpression clone 2), 0.1 uM drug, 72 h, vs empty vector control.
Where [5] appears, read: OE2 (RAMS11 overexpression clone 2), 1 uM drug, 72 h, vs empty vector control.
The mark [6] stands for this setting: OE2 (RAMS11 overexpression clone 2), 10 uM drug, 72 h, vs empty vector control.

Procedure: The FDA-approved anticancer panel included multiple classes of drugs such as kinase inhibitors, alkylating agents, antineoplastic antibiotics, anthracycline antibiotics, and antineoplastic agents (topoisomerase inhibitors). The HT29 RAMS11 overexpressing and control cells were treated for 72 h to assess cellular viability upon drug treatment (FIG. 14a and TABLE 3). […] Due to 5-FU commonly used to treat mCRC, we further determined if RAMS11 expression altered drug sensitivity in treated cells.
Drugs were diluted in DMSO to 1 mM and the well assignments were rearranged so drugs were confined to the inner 60 wells of 96-well plates. […] The next day serial diluted drug was added to pre-seeded plates in media containing 1% DMSO vehicle, using a Robbins Hydra 96 micro dispenser. Two 96-well plates of cells were used as vehicle controls. The plates were incubated for 3 days. Percent viability was scored by incubating cells for 3 h with resazurin sodium (0.023 mg/mL, Sigma R7017). The reaction was stopped by the addition of SDS (1% final concentration). Fluorescence Ex/Em 540/590 was read in a Biotek Synergy H1 plate reader (Winooski, VT). The fluorescence values for the vehicle plates were averaged and percent viability was determined by the formula: Percent viability=(average vehicle−value)/(average vehicle−average resazurin in media blank)×100. […] Assays were repeated more than three times.

For `Nc1nc2[nH]cc(CCc3ccc(C(=O)N[C@@H](CCC(=O)O)C(=O)O)cc3)c2c(=O)[nH]1` [Pemetrexed disodium salt], the “Viability Fold Change” value under setting [1] was 0.9118; the “Viability Fold Change” value under setting [2] was found to be 0.9424; the “Viability Fold Change” value under setting [3] is reported as 1.886; the “Viability Fold Change” value under setting [4] is on record as 0.9953; the “Viability Fold Change” value under setting [5] is 0.9455; the “Viability Fold Change” value under setting [6] is reported as 1.933.

`O=P1(N(CCCl)CCCl)NCCCO1` (centres unmarked) [Cyclophosphamide]: the “Viability Fold Change” value is 0.857 and 0.9632 and 0.9808 and 0.899 and 1.019 and 0.881.

For the molecule `COc1cc([C@@H]2c3cc4c(cc3[C@@H](O[C@@H]3O[C@@H]5CO[C@@H](c6cccs6)O[C@H]5[C@H](O)[C@H]3O)[C@H]3COC(=O)[C@H]23)OCO4)cc(OC)c1O` [Teniopside], the “Viability Fold Change” value was 1.038 under setting [1]; 1.327 under setting [2]; 2.288 under setting [3]; 0.9657 under setting [4]; 1.349 under setting [5]; 2.261 under setting [6].

With `S=c1nc[nH]c2nc[nH]c12` [Mercaptopurine], the “Viability Fold Change” value runs as follows: under setting [1], 0.964; under setting [2], 0.9982; under setting [3], 1.006; under setting [4], 0.9412; under setting [5], 1.029; under setting [6], 1.05.

As for `N.N.[Cl][Pt][Cl]` [Cisplatin], the “Viability Fold Change” value is, setting by setting: under setting [1], 1.023; under setting [2], 0.9277; under setting [3], 0.9406; under setting [4], 0.9583; under setting [5], 0.9782; under setting [6], 0.9961.

Turning to `CC[C@@]1(O)C(=O)OCc2c1cc1n(c2=O)Cc2cc3c(CN(C)C)c(O)ccc3nc2-1` [topotecan hydrochloride, reference compound], the “increase in drug resistance in HT29 RAMS11 overexpressing cells” value (topoisomerase inhibitors, vs empty vector cells) is reported as “at least a two-fold increase in drug resistance”.

On to Dabrafenib mesylate, for which the “Viability Fold Change” value reads like this: under setting [1], 0.7923; under setting [2], 0.8383; under setting [3], 0.912; under setting [4], 0.7733; under setting [5], 0.8008; under setting [6], 0.913.

As for `C#Cc1cccc(Nc2ncnc3cc(OCCOC)c(OCCOC)cc23)c1` [Erlotinib HCl], the “Viability Fold Change” value reads like this: under setting [1], 0.9958; under setting [2], 1.169; under setting [3], 1.179; under setting [4], 0.9899; under setting [5], 1.172; under setting [6], 1.215.

Consider `O=C(O)CCCc1ccc(N(CCCl)CCCl)cc1` [Chlorambucil], for which the “Viability Fold Change” value is, setting by setting: under setting [1], 0.9531; under setting [2], 1.164; under setting [3], 1.064; under setting [4], 0.9859; under setting [5], 1.144; under setting [6], 0.9173.

As for `COc1cccc2c1C(=O)c1c(O)c3c(c(O)c1C2=O)C[C@@](O)(C(=O)CO)C[C@@H]3O[C@H]1C[C@H](N)[C@@H](O)[C@H](C)O1` [Epirubicin hydrochloride], the “Viability Fold Change” value is reported as 1.025 under setting [1]; 1.822 under setting [2]; 2.19 under setting [3]; 1.023 under setting [4]; 1.861 under setting [5]; 1.999 under setting [6].

On to `COc1cc2c(Nc3ccc(Br)cc3F)ncnc2cc1OCC1CCN(C)CC1` [Vandetanib], for which the “Viability Fold Change” value under setting [1] turned out to be 0.9025; the “Viability Fold Change” value under setting [2] worked out at 0.8127; the “Viability Fold Change” value under setting [3] is 1.181; the “Viability Fold Change” value under setting [4] is listed as 0.971; the “Viability Fold Change” value under setting [5] is 0.9162; the “Viability Fold Change” value under setting [6] was 1.142.

On to `CC(=O)O[C@]1(C(C)=O)CC[C@H]2[C@@H]3C=C(C)C4=CC(=O)CC[C@]4(C)[C@H]3CC[C@@]21C` [Megestrol acetate], for which the “Viability Fold Change” value under setting [1] is recorded as 0.8922; the “Viability Fold Change” value under setting [2] turned out to be 1.034; the “Viability Fold Change” value under setting [3] is listed as 0.9961; the “Viability Fold Change” value under setting [4] amounted to 0.8949; the “Viability Fold Change” value under setting [5] is reported as 0.9578; the “Viability Fold Change” value under setting [6] is 0.9016.

Consider `Cc1ccc(-c2cc(C(F)(F)F)nn2-c2ccc(S(N)(=O)=O)cc2)cc1` [Celecoxib], for which the “Viability Fold Change” value came out at 0.8767 under setting [1]; 0.9228 under setting [2]; 0.9797 under setting [3]; 0.948 under setting [4]; 0.9628 under setting [5]; 0.9848 under setting [6].

`CN(Cc1cnc2nc(N)nc(N)c2n1)c1ccc(C(=O)N[C@@H](CCC(=O)O)C(=O)O)cc1` [Methotrexate]: the “Viability Fold Change” value under setting [1] amounted to 0.9199; the “Viability Fold Change” value under setting [2] is 0.5578; the “Viability Fold Change” value under setting [3] was determined as 1.197; the “Viability Fold Change” value under setting [4] is reported as 0.9143; the “Viability Fold Change” value under setting [5] came out at 0.5752; the “Viability Fold Change” value under setting [6] is listed as 1.137.

For `O=C1c2c(O)ccc(O)c2C(=O)c2c(NCCNCCO)ccc(NCCNCCO)c21` [Mitoxantrone], the “Viability Fold Change” value is on record as 1.145 under setting [1]; 1.451 under setting [2]; 1.375 under setting [3]; 1.105 under setting [4]; 1.432 under setting [5]; 1.508 under setting [6].

For `CO[C@H]1C[C@@H]2CC[C@@H](C)[C@@](O)(O2)C(=O)C(=O)N2CCCC[C@H]2C(=O)O[C@H]([C@H](C)C[C@@H]2CC[C@@H](OCCO)[C@H](OC)C2)CC(=O)[C@H](C)/C=C(\C)[C@@H](O)[C@@H](OC)C(=O)[C@H](C)C[C@H](C)/C=C/C=C/C=C/1C` [Everolimus], the “Viability Fold Change” value reads like this: under setting [1], 0.6419; under setting [2], 0.7474; under setting [3], 0.6863; under setting [4], 0.6484; under setting [5], 0.7943; under setting [6], 0.721.

Turning to `CN(N=O)C(=O)N[C@@H](C=O)[C@@H](O)[C@H](O)[C@H](O)CO` [Streptozocin], the “Viability Fold Change” value runs as follows: under setting [1], 1.06; under setting [2], 1.011; under setting [3], 0.905; under setting [4], 0.9729; under setting [5], 1.036; under setting [6], 0.9955.

Consider `CC[C@]1(O)C[C@@H]2CN(CCc3c([nH]c4ccccc34)[C@@](C(=O)OC)(c3cc4c(cc3OC)N(C)[C@H]3[C@@](O)(C(=O)OC)[C@H](OC(C)=O)[C@]5(CC)C=CCN6CC[C@]43[C@@H]65)C2)C1` [Vinblastine sulfate], for which the “Viability Fold Change” value is listed as 3.198 under setting [1]; 3.402 under setting [2]; 3.682 under setting [3]; 2.825 under setting [4]; 3.412 under setting [5]; 3.815 under setting [6].

These data come from patent publication US12024707B2, “Methods and compositions for modulating lncRNAs and methods of treatment based on lncRNA expression” (Washington University, priority 2020, dated 2024).
